Reference: patent US20140199261A1, “METHOD OF REDUCING MULTI-DRUG RESISTANCE USING INOSITOL TRIPYROPHOSPHATE” (Universite de Strasbourg, priority 2009, published 2014)

Columns and labels:
[1] = tested on: Human Panc-1 pancreatic tumor xenograft; assay: Median survival, human Panc-1 pancreatic tumor xenograft in nude mouse; assay type: in vivo
Experimental: In the ITPP treatment group, mice with tumor xenograft were treated with ITPP (2 mg/Kg) weekly during the period of day 14 to day 49. In the gemcitabine treatment group, mice with tumor xenograft were treated with gemcitabine (100 mg/Kg) on days 16, 18 and 20. Animals in the control group were not treated.
In the combination treatment group, mice with tumor xenograft were treated with ITPP (2 mg/Kg) in combination with gemcitabine (25 mg/Kg or 50 mg/Kg) weekly during the period of day 14 to day 49. In the
gemcitabine treatment group, mice with tumor xenograft were treated with gemcitabine (100 mg/Kg) on days 16, 18 and 20. Animals in the control group were not treated.
In the xenograft tumor model, mice in the combination treatment group received administration of ITPP (2 mg/Kg) in combination with gemcitabine (25 mg/Kg or 50 mg/Kg) weekly during the period of day 14 to day 49. Mice in the gemcitabine treatment group received administration of gemcitabine (100 mg/Kg) on days 16, 18 and 20. Mice in the control group were not treated.
(§1) Median survival time of animals with ductal pancreatic adenocarcinoma treated with OXY111A and/or gemcitabine was followed and summarized in Table 1 below: […]

B16 tumor = assay: Immune cell infiltration into B16 tumor; assay type: in vivo
Experimental: OXY111A was injected intraperitoneally on days 7, 8, 14, 15, 21, 22, 29 and 30. Analysis of the B16 tumor was performed on day 31.
(a) to (c) untreated B16 tumor; (d) to (f) B16 tumor treated with ITPP. Green arrows indicate the infiltrating NK cells; red arrows indicate the vessel walls.
B16 tumor cells were labeled with B16F10 DAPI; NK cells were labeled by anti-CD49bFITCl; and vessel endothelial cells were labeled by antiCD31TRITC. (a) untreated B 16 tumor; (b) and (c) B 16 tumor treated with ITPP.

[2] = tested on: B16F10LucGFP subcutaneous tumors; assay: Subcutaneous melanoma model (lung metastases, vessel normalization, drug efflux pump); assay type: in vivo, mouse
Experimental: (§2) B16F10LucGFP cells were grown as subcutaneous tumors, after injecting 100 μl of a plug constituted by 10^5 cells in 25% Matrigel™ (50% in OptiMEM). Matrigel was from BD Biosciences and OptiMEM from Invitrogen. Mice were euthanized and tumors and lungs excised 25 days after inoculation. […] Treatment was initiated 7, 9 or 11 days post melanoma cell inoculation.
Tumor tissues were embedded in Tissue-Tek (Sakura), tissue freezing medium and snap frozen in liquid nitrogen. Cryosections were fixed and stained using a rat monoclonal IgG2a antibodies against mouse CD31 (PECAM-I, platelet/endothelial cell adhesion molecule) from eBiosciences, rabbit IgG anti-SMA (smooth muscle actin) antibody (AbCAM), or mouse IgG2a anti-P-Glycoprotein (C219) (Calbiochem), diluted 1:200 in FCS 5% in PBS. Goat IgG-FITC-labeled anti-rat immunoglobulin, goat IgG-FITC-labelled anti-rabbit immunoglobulin or goat IgG-FITC-labelled anti-mouse immunoglobulin (diluted 1:200 in PBS) was used as secondary antibodies respectively. To detect cell nuclei, sections were incubated with bis-Benzimide H 33258 (Sigma-Aldrich) 1:1000 in PBS. Specimens were mounted in Vectashield (Vector) and fluorescent microscopy detection was performed on a Zeiss 200M inverted fluorescent microscope. Tumor necrosis was analysed after Hematoxylin eosine staining of tumor sections.
MRI assays were performed with a 9.4 T horizontal magnet for small animals (94/21 USR Bruker Biospec), equipped with a 950 mT/m gradient set. Mice were placed in a linear homogeneous coil (inner diameter: 35 mm). Animals were maintained under gaseous (50% N2O: 0.7 l/min—50% O2: 0.7l/min—Isoflurane 1.5%) anesthesia, temperature kept constant at 36° C. and breathing rate was monitored during the acquisitions using air balloon placed on the mouse chest to adjust the anesthetic output. Measurement of tumor vascularization was performed by MR angiography using the Fast Low Angle Shot (FLASH) sequence both in the axial and coronal planes. The FLASH pulse sequence was adapted to the study of the evolution of the angiogenesis of the tumor. This technique allows the 3D structure of the vascular tree of the tumor on the same animal to be followed overtime.
Structural changes of microcirculation in tumors were assessed by MRA (Magnetic Resonance Angiography) adaptation of Magnetic Resonance Imaging (MRI) to follow the 3D structure of the vascular tree of the tumor.

[3] = tested on: Rat tumor in Nude Mouse (ductal pancreatic adenocarcinoma); assay: Median survival, rat pancreatic tumor in nude mouse; assay type: in vivo
Text: as §1

[4] = tested on: Human MiaPaca in Nude Mouse; assay: Median survival, human MiaPaca tumor in nude mouse; assay type: in vivo
Text: as §1

[5] = tested on: subcutaneous melanoma tumor; assay: Oxylite pO2 measurement in subcutaneous melanoma tumor; assay type: in vivo, mouse
Experimental: as §2
The oxylite 2000E PO2 system (Oxford Optronics) measures pO2 by determining the O2-dependant fluorescence lifetime of ruthenium chloride which is immobilized at the tip of 230-μm diameter fiber-optic probe. The lifetime of the fluorescent pulse is inversely proportional to the oxygen tension in the tip. The mouse was anesthetized with intraperitoneal injection of xylazine/ketamin before the oxylite probe tip was installed inside the tumor and oxygen pressure recorded as described.
To confirm that ITPP-RBCs counteract hypoxia in vivo, a comparison of the values of the oxygen tension inside the melanoma tumors implanted subcutaneously above the left leg, in ITPP-treated and untreated mice was performed. Oxygen pressure (pO2) was computed by determining the O2-dependent fluorescence lifetime of ruthenium chloride on the tip of a fibre-optic probe. The lifetime of the fluorescent pulse is inversely proportional to the oxygen tension in the tip of the probe. While the tumors in non-treated animals, were strongly hypoxic with an oxygen pressure value below 2 mmHg (FIG. 1), in tumors of ITPP-treated mice pO2 reached the range of 40 mmHg (FIG. 1A). This pO2 increase occurred as soon as 30 minutes after intra-peritoneal injection of ITPP (FIG. 1B, C) and was maintained at a high level, up to 40 mmHg, as shown 24 hours after injection (FIG. 1A) for at least 48 hours.

[6] = tested on: Syngeneic rat tumor in rat (ductal pancreatic adenocarcinoma); assay: Median survival, syngeneic rat pancreatic tumor in rat; assay type: in vivo
Experimental: In the ITPP treatment group, rats with pancreatic tumor were treated with ITPP (1.5 mg/Kg) weekly during the period of day 14 to day 49. In the gemcitabine treatment group, rats with pancreatic tumor were treated with gemcitabine (100 mg/Kg) on days 16, 18 and 20. Animals in the control group were not treated.
In the combination treatment group, rats with pancreatic tumor were treated with ITPP (1.5 mg/Kg) in combination with gemcitabine (25 mg/Kg or 50 mg/Kg) weekly during the period of day 14 to day 49. In the gemcitabine treatment group, rats with pancreatic tumor were treated with gemcitabine (100 mg/Kg) on days 16, 18 and 20. Animals in the control group were not treated.
In the rat pancreatic tumor model, rats in the combination treatment group received ITPP (1.5 mg/Kg) in combination with gemcitabine (25 mg/Kg or 50 mg/Kg) weekly during the period of day 14 to day 49. Rats in the gemcitabine treatment group received administration of gemcitabine (100 mg/Kg) alone on days 16, 18 and 20. Rats in the control group were not treated.
as §1

[7] = tested on: B16F10LucGFP murine melanoma cells; assay: Experimental metastasis assay (intravenous B16F10LucGFP melanoma cells), lung markers; assay type: in vivo, mouse
Experimental: After intravenous injection of B16F10LucGFP murine melanoma cells (10^5 cells in 0.1 ml saline) in the tail vein, mice (eight-week-old female C57BL/6 from Janvier) were treated by 1.5 g/kg ITPP IP injected every 5 days (10 mice per treatment group). Treatment was initiated at day 5 after tumor cells inoculation. 19 or 27 days later, mice were euthanized and lungs collected separately. Macroscopic lung foci were counted and luciferase was determined by chemoluminescence assay (Promega) in order to quantify the amount of melanoma cells in tissues. All animal study procedures and the use of animals were approved by the Comite d'Ethique pour l'expérimentation animale, Campus CNRS d'Orléans, France.
Lungs were homogenized in lysis buffer (Active motif). After centrifugations, clear supernatant was collected. Total protein amount was determined by BCA protein assay kit (Thermo Scientific). HIF-1α, VEGF, Tie-2 and HO-1 in lung lysates were quantified using colorimetric sandwich ELISA according to the manufacturer's instructions. The HIF-1α, VEGF and Tie-2 ELISA kits were from R&D. The HO-1 ELISA kit was from Takara.
The Taqman polymerase chain reaction primer sequences for LOX were 5′-[…]-3′ (SEQ ID NO: 1) and 5′-[…]-3′ (SEQ ID NO: 2). For β-actin (internal control), the primer sequences were 5′-[…] ATCC-3′ (SEQ ID NO: 3) and 5′-[…]-3′ (SEQ ID NO: 4). The amplified cDNAs bands were quantified with ImageQuant software (Becton and Dickinson). LOX mRNA levels were normalized relatively to β-actin mRNA.
To validate ITPP as an anti-metastatic agent, the “artificial” model of lung metastasis was used by injecting intravenously melanoma cells in mice. The B16F10LucGFP cell line was used, which is the melanoma B16F10 line transduced by GFP and luciferase reporter genes allowing to track and quantify the melanoma cells by analysis of luciferase activity in tissues.

endothelial cells = assay: Endothelial cell sensitivity to chemotherapeutic drugs; assay type: cell-based, mouse; conditions: drug by itself, FIG. 4C
Experimental: Cell viability was evaluated by Alamar blue test (Biosource) as described by the manufacturer.

Q: Which results are given for `O=P1([O-])OC2C3OP(=O)([O-])OP(=O)([O-])OC3C3OP(=O)([O-])OP(=O)([O-])OC3C2OP(=O)([O-])O1.[Na+].[Na+].[Na+].[Na+].[Na+].[Na+]` (stereo not drawn) [ITPP, hexasodium myo-inositol trispyrophosphate]?
A: Median survival time ([1]; OXY111A alone, 2 mg/kg): 155 days; Infiltration of CD49b NK cells into tumor (B16 tumor; in vivo): significantly enhanced; Presence of CD31 EC cells in tumor (B16 tumor; in vivo): significantly enhanced; Infiltration of CD68 (M2 type) macrophages into tumor (B16 tumor; intraperitoneal injections on days 7, 8, 14, 15, 21, 22, 29 and 30): significantly enhanced; Tumor vasculature (MRA) ([2]; ITPP on day 9 and 14, repeated on days 18 and 19): less dense and remarkably normalized; Tumor size ([2]; ITPP on days 9, 14, 18, 19): remarkable reduction of the tumor size; P-glycoprotein drug efflux pump in tumor ([2]; implanted primary tumors, immunostaining): down-regulates; Lung metastases ([2]; initiation of ITPP on day 9 or 11): less effective; Lung metastases ([2]; initiation on day 9 or 11, chronic administrations): enhancement of pulmonary metastases; Lung metastases ([2]; short-term treatment (3 ITPP injections, 5 days intervals) started on day 7): reduced significantly the lung metastases; Median survival time ([3]; OXY111A alone, 2 mg/kg): 107 days; Median survival time ([4]; OXY111A alone, 2 mg/kg): 155 days; pO2 level maintained in tumor ([5]; 24 hours after injection): up to 40 mmHg; Duration of high tumor pO2 ([5]; after injection): at least 48 hours; Time to pO2 increase in tumor ([5]; after intra-peritoneal injection of ITPP): 30 minutes; pO2 in muscle of non tumoral leg ([5]; parallel measurement in same animal): no change or any effect on pO2 was detected; Oxygen pressure (pO2) in tumor ([5]; tumors of ITPP-treated mice, FIG. 1A): ~40 mmHg; Median survival time ([6]; OXY111A alone, 1.5 mg/kg): 102 days; Tie-2 expression in lungs ([7]; ELISA on lung lysates): re-induced; VEGF level in lungs ([7]; ELISA on lung lysates): decreased to control levels; HIF-1α levels in lungs ([7]; ELISA on lung lysates, vs untreated melanoma bearing mice): decreased dramatically; HO-1 expression in lungs ([7]; ELISA, compared to non-treated mice): significantly reduced; Metastatic nodules in lung ([7]; ITPP treatment started from day 5, until day 27): very significantly reduced; Lysyl-oxidase (LOX) mRNA ([7]; semi-quantitative PCR): beneficial effect

Q: How did the “Growth of endothelial cells” value (endothelial cells) turn out when `CC(=O)O[C@H]1C(=O)[C@@]2(C)[C@H]([C@H](OC(=O)c3ccccc3)[C@]3(O)C[C@H](OC(=O)[C@H](O)[C@@H](NC(=O)c4ccccc4)c4ccccc4)C(C)=C1C3(C)C)[C@]1(OC(C)=O)CO[C@@H]1C[C@@H]2O` [Paclitaxel, paclitaxel] was run?
A: The value was “inhibited the growth of the endothelial cells”.

Q: `N.N.[Cl][Pt][Cl]` [cisplatin, cis-dichlorodiamine platinum] was tested. Which “Growth of endothelial cells” value (endothelial cells) did it give?
A: Its value is “inhibited the growth of the endothelial cells”.

Q: `Nc1ccn([C@@H]2O[C@H](CO)[C@@H](O)C2(F)F)c(=O)n1` [Gemcitabine, gemcitabine, reference compound] was tested. Which Median survival time ([1]; Gemcitabine alone, 100 mg/kg) did it give?
A: The Median survival time was 141 days.

Q: And the Median survival time ([3]; Gemcitabine alone, 100 mg/kg)?
A: The Median survival time was 89 days.

Q: And the Median survival time ([4]; Gemcitabine alone, 100 mg/kg)?
A: Its Median survival time is 140 days.

Q: And the Median survival time ([6]; Gemcitabine alone, 100 mg/kg)?
A: The Median survival time was 58 days.
